# Assay results published in patent publication US20230296625A1, “CXCL14 AS PREDICTIVE BIOMARKER FOR ACUTE LIVER FAILURE AND DEATH” (University of Kansas, priority 2022, published 2023).
# Like-named read-outs stand apart in the source and are kept apart here.
# Tests used:
# [1] = system: fasted male C57BL/6J mice; details: mouse, in vivo
# Protocol: The liver and plasma samples were collected between 6-72 hours after acetaminophen exposure.
# ALT assay plasma alanine aminotransferase (ALT) activities were measured using an ALT test kit (Point Scientific, Inc, Canton, MI) per the manufacturer’s instruction.
# human liver = details: in vivo
# Protocol: A western blot analysis on the removed liver from a transplant recipient after acetaminophen overdose was carried out to determine whether circulating CXCL14 levels also reflected levels within the human liver. […] Therefore, the biological sample can be a blood sample (or plasma) or a liver sample.
# Histology and Immunohistochemistry Formalin-fixed human and mouse tissue samples were embedded in paraffin and 5 µm sections were cut. Sections were stained with hematoxylin and eosin (H&E) for evaluation of the areas of necrosis. Additional liver sections were hydrated and went through antigen retrieval by boiling in sodium citrate buffer (pH 6.0). Liver sections were blocked in 3% BSA and serum then incubated with the primary antibodies overnight. Primary antibodies included anti-rabbit CD68 (Cell Signaling Technology, cat # 26042). Liver sections were washed and incubated in 3% hydrogen peroxide to block endogenous peroxidases. Biotinylated secondary antibody and DAB substrate were used to visualize the signals. Immunofluorescence staining was performed using 5 µm cryosections prepared from OCT-embedded tissue. Sections were blocked with 3% BSA and stained with anti-rabbit CXCL14 (Abcam, cat #264467). Fluorescence conjugated secondary antibodies Alexa Fluor 488 (Invitrogen, cat #A11034) goat anti rabbit was used.
# Western blotting snap frozen tissue was homogenized in a CHAPs containing protein buffer and total protein was measured using the BCA assay (Pierce Scientific, Waltham, Massachusetts). Gel electrophoresis was carried out on protein lysates from individual samples, which were then transferred to a nitrocellulose blot.
# [2] = system: acetaminophen overdose patients; details: human, in vivo
# Protocol: A series of experiments were performed in order to evaluate the relevance of the findings from the mouse model (FIGS. 1A-1C), and whether the data can be relevant to humans. Plasma samples ([…]) were from acetaminophen overdose patients, where the plasma samples include 10 survivors with low injury, 30 survivors with high injury and 19 non-survivors. 10 healthy volunteer plasma samples were also obtained for comparison. Patients were categorized based on alanine amino transferase (ALT) level, with survivors with very mild ALT elevations at < 100 U/L categorized as low injury and survivors with peak ALT of 6200 U/L categorized as high injury.
# Since the time from acetaminophen exposure until the patient going to the clinic for treatment is highly variable, the day of peak ALT as day 1 was set for all patients to streamline data.
# We measured CXCL14 in plasma of acetaminophen-induced injury patients for three days. To make the data more reliable due to the complicated admission day and time of acetaminophen being taken, Day 1 is chosen as the day of peak ALT. We observed no CXCL14 increase in low injury patients (<100 pg/mL). […] In contrast, we found CXCL14 level is significant increased at day 1 (7000 pg/mL), but its level keep elevated by day 3 (8000 pg/mL) with a much higher level compared to the survivors (FIG. 2B). Next, we want to determine whether CXCL14 level in plasma can predict patient outcome.
# All results were expressed as mean ± SE. Comparisons between multiple groups were performed with one-way ANOVA or, where appropriate, by two-way ANOVA, followed by a post hoc Bonferroni test. If the data were not normally distributed, we used the Kruskal-Wallis Test (nonparametric ANOVA) followed by Dunn’s Multiple Comparisons Test. P < 0.05 was considered significant. Receiver operating characteristic analysis curve was performed to determine optimal threshold values to discriminate between survivors and non-survivors.
smiles,measurement,setting,value
"CC(=O)Nc1ccc(O)cc1 [acetaminophen, N-acetyl-p-aminophenol]",plasma ALT levels,[1]; 300 mg/kg,return to baseline in both doses by 72 hours
same,plasma ALT levels,[1]; 600 mg/kg,return to baseline in both doses by 72 hours
same,ALT,human liver,1620.9 U/L
same,hepatic levels of CXCL14 (western blot),human liver,Elevation in hepatic levels of CXCL14 are evident
same,macrophage staining with CD68,human liver,significant increase in macrophage staining
same,necrosis by H&E staining,human liver,significant areas of necrosis
same,staining for CXCL14 in liver sections,human liver,significant elevations
same,ALT elevations,[2],< 100 U/L
same,bilirubin,[2],12.5 mg/dL
same,prothrombin times,[2],significantly higher
